Data on five compounds can be found in patent publication US20220323468A1, “REDUCED NICOTINAMIDERIBOSIDES FOR THE TREATMENT/PREVENTION OF LIVER DISEASE” (SOCIETE DES PRODUITS NESTLE S.A., priority 2019, published 2022).

Structures can show the parent of a compound that is named as a salt.

For one data set, the target named is T1, adenosine kinase (AK) (Mus musculus, UniProt P55264).
T1 construct: endogenous in cells; host or cells: AML12 cells
Briefly: NRH-induced NAD+ synthesis with adenosine kinase inhibitors. It is filed as cell-based. On the set-up: effect of AK inhibitor on NRH action (NAD+ synthesis): dose or concentration left out as unconfirmed. Particulars: for effect of AK inhibitor on NRH action (NAD+ synthesis): AML12 cells, inhibitor (5-IT) 1 hour prior to NRH, NAD+ measured 1 hour later. On the procedure: AML12 cells were treated with an adenosine kinase inhibitor (5-IT; […]) for 1 hour prior to NRH treatment at the doses indicated. Then, 1 hour later, acidic extracts were obtained to measure NAD^+ levels.

Data set [1] deals with primary hepatocytes from NRK1 knockout (NRK1KO) mice. Put plainly: NAD+ levels in primary hepatocytes from control or NRK1 knockout mice. Type of data set: cell-based. Particulars: after 1 hour of treatment. The source says: The action of NRH was also NAMPT-independent, based on experiments using FK866, a NAMPT inhibitor. If NRH led to NAD+ synthesis via the formation of NMNH, this hypothetical path would require the phosphorylation of NRH into NMNH. Given the essential and rate-limiting role of NRK1 in NR phosphorylation, we wondered whether the ability of NRH to boost NAD+ levels was NRK1 dependent. To answer this question, we evaluated NRH action in primary hepatocytes from either control or NRK1 knockout (NRK1KO) mice. […] Further, they rule out the possibility that NRH-induced NAD+ […] is driven by NRH oxidation into NR.

Data set [2] is described as follows: Stability in isolated mouse plasma. Particulars: spiked in isolated mouse plasma, 2 h of incubation. It is filed as in vitro ADME. The source says: (§1) NR degradation to NAM has been proposed as a limitation for its pharmacological efficacy. To evaluate whether NRH was also susceptible to degradation to NAM, we spiked NRH or NR in isolated mouse plasma. […] We also tested the stability of NRH in other matrixes.

Data set [3] is described as follows: Stability in FBS supplemented media. To be noted: FBS supplemented media.
Text: as §1

A short description of data set [4]: Tissue NAD+ levels after IP injection in mice. It is filed as in vivo. To be noted: IP 500 mg/kg, after 1 h. As to the method:
(§2) The above results prompted us to test whether NRH could act as an effective NAD+ precursor in vivo. For this, we first intraperitoneally (IP) injected mice with either NR or NRH (500 mg/kg).

The nature of data set [5]: Circulating NAM, NRH and NR after IP injection in mice. It is filed as in vivo. To be noted: mice, IP 500 mg/kg.
Text: (§3) Levels of NRH and other NAD-related metabolites in biological samples were obtained by using a cold liquid-liquid extraction using a mixture of methanol:water:chloroform in 5:3:5 (v/v), from which the polar phase was recovered for hydrophilic interaction ultra-high performance liquid chromatography mass spectrometry (UHPLC-MS) analysis. The UHPLC consisted of a binary pump, a cooled autosampler, and a column oven (DIONEX Ultimate 3000 UHPLC+ Focused, Thermo Scientific), connected to a triple quadrupole spectrometer (TSQ Vantage, Thermo Scientific) equipped with a heated electrospray ionisation (H-ESI) source. Of each sample, 2 μL were injected into the analytical column (2.1 mm×150 mm, 5 μm pore size, 200 Å HILICON iHILIC®-Fusion(P)), guarded by a pre-column (2.1 mm×20 mm, 200 Å HILICON iHILIC®-Fusion(P) Guard Kit) operating at 35° C. The mobile phase (10 mM ammonium acetate at pH 9, A, and acetonitrile, B) was pumped at 0.25 mL/min flow rate over a linear gradient of decreasing organic solvent (0.5-16 min, 90-25% B), followed by re-equilibration for a total run time of 30 min. The MS operated in positive mode at 3500 V with multiple reaction monitoring (MRM). The software Xcalibur v4.1.31.9 (Thermo Scientific) was used for instrument control, data acquisition and processing. Retention time and mass detection was confirmed by authentic standards.
as §2

A short description of data set [6]: Plasma NRH, NR and NAM after oral administration in mice. It is filed as in vivo. Particulars: mouse, in vivo, po. On the procedure: 8 week-old C57BI/6NTac mice were orally gavaged with either saline (as vehicle), NR (500 mg/kg) or NRH (500 mg/kg). After 1 hour, liver, skeletal muscle and kidney NAD^+ levels were evaluated. All results are expressed as mean+/− SEM of n=5 mice per group. * indicates statistical difference at p<0.05 vs. vs. saline-treated mice. # indicates statistical difference at p<0.05 vs. NR treated mice.
as §3
Oral administration of NRH led to very similar results to those observed after IP administration. […] NRH was detectable in plasma 1 h after oral administration. In contrast, NR levels were undetectable at 1 h after NR administration.

Data set [7] is described as follows: Intrahepatic and hepatic mitochondrial NAD+ after IP injection in mice. Type of data set: in vivo. To be noted: NR 500 mg/kg or equimolar amounts, 1 hour later; for hepatic mitochondrial NAD+ levels: isolated liver mitochondria. As to the method: 10 week old male mice were fasted for 2 hours prior to intraperitoneal injection (IP) with saline as control/vehicle, nicotinamide riboside (NR; 500 mg/kg) or equimolar amounts of dihydronicotinamide riboside (NRH) or nicotinamide (NAM). Then, 1 hour later, mice were euthanized and a piece of liver was snap frozen while another piece was used for mitochondrial isolation following a published procedure (Frezza et al., 2007; Nature Protocols). The piece of snap frozen liver was weighted and submitted to acidic extraction to evaluate NAD+ levels through enzymatic methods. For isolated mitochondria, protein was quantified and 200 micrograms of protein were used for acidic extraction and NAD+ measurement through enzymatic methods. […] All results are mean+/− SEM of n=4 animals per group. * indicates statistical difference at p<0.05 vs. control/vehicle group.

In the next data set the test system is NMNAT. Briefly: NRH-induced NAD+ synthesis with NMNAT inhibitor gallotannin. Type of data set: cell-based. The source says:
As a follow-up step, NMNAT enzymes could catalyze the transition from NMNH to NADH.

T1 sequence (P55264 whole entry): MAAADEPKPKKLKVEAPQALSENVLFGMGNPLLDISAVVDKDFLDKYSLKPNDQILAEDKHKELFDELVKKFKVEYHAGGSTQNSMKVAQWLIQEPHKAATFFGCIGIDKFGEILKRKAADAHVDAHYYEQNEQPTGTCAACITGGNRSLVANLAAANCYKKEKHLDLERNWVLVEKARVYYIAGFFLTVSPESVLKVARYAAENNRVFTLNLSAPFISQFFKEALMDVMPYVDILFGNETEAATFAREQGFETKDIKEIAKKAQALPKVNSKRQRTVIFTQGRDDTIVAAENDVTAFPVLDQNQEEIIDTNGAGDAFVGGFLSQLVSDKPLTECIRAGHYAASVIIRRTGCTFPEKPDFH

For the compound `Nc1ncnc2nc(-c3ccc(N4CCOCC4)nc3)cc(-c3cccc(Br)c3)c12` [ABT-702], on adenosine kinase (AK), the “effect of AK inhibitor on NRH action (NAD+ synthesis)” value is “confirmed”.
For `NC(=O)c1ccc[n+]([C@@H]2O[C@H](CO)[C@H](O)C2O)c1` (stereo partly drawn) [NR, 1-b-D-ribofuranosyl-3-pyridinecarboxamide salt, reference compound], the “NAD+ levels in NRK1KO derived primary hepatocytes” value in data set [1] is “failed to increase NAD+ levels”. In [2], the “compound levels in plasma” value is given as “decayed” and the “generation of NAM in plasma” value is listed as “increase in NAM”. Besides, the “degradation to NAM” value in data set [3] is “as occurs with NR”. In data set [4], the “NAD+ levels in kidney” value is listed as “increased NAD+ levels”, the “NAD+ levels in liver” value is “increased NAD+ levels” and the “NAD+ levels in muscle” value is listed as “increased NAD+ levels”. In addition, the “NAM levels in circulation” value in data set [5] was “highly increased”. The “circulating NAM relative to that after NRH treatment” value in [6] (C57BI/6NTac, 1 h) was roughly 4 fold. In data set [6], the “administered compound in plasma” value was “undetectable” and the “circulating NAM” value is listed as “large increases”. In addition, in [7], the “intrahepatic NAD+” value is “increase intrahepatic NAD+” and the “hepatic mitochondrial NAD+ levels” value is recorded as “only NRH increases mitochondrial NAD+ levels”.
As to `Nc1ncnc2c1c(I)cn2[C@@H]1O[C@H](CO)[C@@H](O)[C@H]1O` [5-IT, 5-iodotubercidin], the “effect of AK inhibitor on NRH action (NAD+ synthesis)” value at adenosine kinase (AK) is “fully ablated the action of NRH”. The “formation of NR and NMN after NRH treatment” value at adenosine kinase (AK) (with 5-IT treatment) is “prevented the formation of NR and NMN”.
For `O=C(OC[C@H]1O[C@@H](OC(=O)c2cc(O)c(O)c(OC(=O)c3cc(O)c(O)c(O)c3)c2)[C@H](OC(=O)c2cc(O)c(O)c(OC(=O)c3cc(O)c(O)c(O)c3)c2)[C@@H](OC(=O)c2cc(O)c(O)c(OC(=O)c3cc(O)c(O)c(O)c3)c2)[C@@H]1OC(=O)c1cc(O)c(O)c(OC(=O)c2cc(O)c(O)c(O)c2)c1)c1cc(O)c(O)c(OC(=O)c2cc(O)c(O)c(O)c2)c1` [gallotannin], the “effect of NMNAT inhibitor on NAD+ synthesis after NRH treatment” value with NMNAT is on record as “largely compromised NAD+ synthesis”. The “effect of NMNAT inhibitor on NRH action” value in the data set on NMNAT (NRH at maximal doses (0.5 mM)) is “part of the NRH action remained”; in the data set with NMNAT (NRH at submaximal doses) it was “totally blocked”.
With `NC(=O)c1cccnc1` [NAM, nicotinamide], in [7], the “intrahepatic NAD+” value is recorded as “increase intrahepatic NAD+” and the “hepatic mitochondrial NAD+ levels” value is reported as “only NRH increases mitochondrial NAD+ levels”.
